# Experimental data reported in patent publication US12428406B2 (PMV Pharmaceuticals, Inc., priority 2019, dated 2025).
# Molecular target: T1, p53 Y220C (Homo sapiens, UniProt P04637, Y220C)
# T1 construct: The recombinant protein was a truncation mutant containing only amino acids 94-312 of p53; made in house; host or cells: E. coli
# Assay: In vitro DNA binding activity assay (HTRF / TR-FRET): stabilization of p53 Y220C and increase of its DNA binding activity
# Type: biochemical
# Settings: recombinant His-tagged p53 Y220C DNA binding domain (aa 94-312), biotin-labeled consensus DNA, incubated at 27° C. or 29° C. for 60 min
# In short: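 Stabilization of the mutant is inferred from increased binding of His-tagged p53 Y220C to a biotin-labeled consensus DNA, detected by HTRF with europium-streptavidin and APC-anti-His antibody. The concentration giving a 50% rise over compound-free binding is reported as SC150.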
# T1 sequence (P04637 94-312, change not shown): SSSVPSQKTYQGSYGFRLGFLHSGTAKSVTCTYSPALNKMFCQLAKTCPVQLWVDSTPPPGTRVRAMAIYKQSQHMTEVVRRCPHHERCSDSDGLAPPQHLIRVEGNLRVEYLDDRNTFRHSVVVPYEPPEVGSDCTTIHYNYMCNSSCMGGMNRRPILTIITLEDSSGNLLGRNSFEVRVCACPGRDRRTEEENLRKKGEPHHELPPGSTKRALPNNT
row,SC150 (concentration of the compound required to increase the DNA binding activity by 50%),Compound
1,+ (+ = 0 μM ≤ SC150 < 0.05 μM),"COCCN(C)[C@H]1CC[C@@H](Nc2cccc3c2cc(C#CCNc2ccc(S(C)(=O)=O)cc2OC)n3CC(F)(F)F)CC1 [Compound 56A, (1S,4S)-N^4-(2-{3-[(4-methanesulfonyl-2-methoxyphenyl)amino]prop-1-yn-1-yl}-1-(2,2,2-trifluoroethyl)-1H-indol-4-yl)-N^1-(2-methoxyethyl)-N^1-methylcyclohexane-1,4-diamine]"
2,+ (+ = 0 μM ≤ SC150 < 0.05 μM),"COc1cc(S(N)(=O)=O)ccc1NCC#Cc1cc2c(NC3CCN(C(C)=O)CC3)cccc2n1CC(F)(F)F [Compound 749A, 4-[(3-{4-[(1-acetylpiperidin-4-yl)amino]-1-(2,2,2-trifluoroethyl)-1H-indol-2-yl}prop-2-yn-1-yl)amino]-3-methoxybenzene-1-sulfonamide]"
3,+ (+ = 0 μM ≤ SC150 < 0.05 μM),"COc1cc(S(C)(=O)=O)ccc1NCC#Cc1cc2c(NC3CCN(C[C@H](CO)OC)CC3)cccc2n1CC(F)(F)F [Compound 629A, (2R)-3-{4-[(2-{3-[(4-methanesulfonyl-2-methoxyphenyl)amino]prop-1-yn-1-yl}-1-(2,2,2-trifluoroethyl)-1H-indol-4-yl)amino]piperidin-1-yl}-2-methoxypropan-1-ol]"
4,+ (+ = 0 μM ≤ SC150 < 0.05 μM),"COc1cc(S(N)(=O)=O)ccc1NCC#Cc1cc2c(N[C@H]3CCN[C@@H](C)C3)cccc2n1CC(F)(F)F [Compound 464A, 3-methoxy-4-{[3-(4-{[(2S,4S)-2-methylpiperidin-4-yl]amino}-1-(2,2,2-trifluoroethyl)-1H-indol-2-yl)prop-2-yn-1-yl]amino} benzene-1-sulfonamide]"
5,+ (+ = 0 μM ≤ SC150 < 0.05 μM),"COc1cc(S(N)(=O)=O)ccc1NCC#Cc1cc2c(NC3CC4(CNC4)C3)cccc2n1CC(F)(F)F [Compound 21A, 4-({3-[4-({2-azaspiro[3.3]heptan-6-yl}amino)-1-(2,2,2-trifluoroethyl)-1H-indol-2-yl]prop-2-yn-1-yl}amino)-3-methoxybenzene-1-sulfonamide]"
6,+ (+ = 0 μM ≤ SC150 < 0.05 μM),"COc1cc(S(C)(=O)=O)ccc1NCC#Cc1cc2c(NC3CC(CO)(CCl)C3)cccc2n1CC(F)(F)F (stereo not shown) [Compound 19A, [1-(chloromethyl)-3-[(2-{3-[(4-methanesulfonyl-2-methoxyphenyl)amino]prop-1-yn-1-yl}-1-(2,2,2-trifluoroethyl)-1H-indol-4-yl)amino]cyclobutyl]methanol]"
7,+ (+ = 0 μM ≤ SC150 < 0.05 μM),"COc1cc(S(C)(=O)=O)ccc1NCC#Cc1cc2c(N[C@H]3CC[C@H](N4CCC(S(C)(=O)=O)CC4)CC3)cccc2n1CC(F)(F)F [Compound 442A, 2-{3-[(4-methane-sulfonyl-2-methoxy-phenyl)amino]prop-1-yn-1-yl}-N-[(1R,4R)-4-(4-methanesulfonylpiperidin-1-yl)cyclohexyl]-1-(2,2,2-trifluoroethyl)-1H-indol-4-amine]"
8,+ (+ = 0 μM ≤ SC150 < 0.05 μM),"COc1cc(S(=O)(=O)O)ccc1NCC#Cc1cc2c(N[C@@H]3CCN(C)C[C@@H]3F)cccc2n1CC(F)(F)F [Compound 931A, 4-{[3-(4-{[(3S,4R)-3-fluoro-1-methylpiperidin-4-yl]amino}-1-(2,2,2-trifluoroethyl)-1H-indol-2-yl)prop-2-yn-1-yl]amino}-3-methoxybenzene-1-sulfonic acid]"
9,+ (+ = 0 μM ≤ SC150 < 0.05 μM),"COc1cc(S(N)(=O)=O)ccc1NCC#Cc1cc2c(N[C@H]3CC[C@H](N4CCC5(CC4)COC5)CC3)cccc2n1CC(F)(F)F [Compound 377A, 3-methoxy-4-{[3-(4-{[(1R,4R)-4-{2-oxa-7-azaspiro[3.5]nonan-7-yl}cyclohexyl]amino}-1-(2,2,2-trifluoroethyl)-1H-indol-2-yl)prop-2-yn-1-yl]amino}benzene-1-sulfonamide]"
10,+ (+ = 0 μM ≤ SC150 < 0.05 μM),"COc1cc(S(C)(=O)=O)ccc1NCC#Cc1cc2c(NC3CCN(CC(C)OC(=O)C(C)C)CC3)cccc2n1CC(F)(F)F (racemic) [Compound 591A, 1-{4-[(2-{3-[(4-methanesulfonyl-2-methoxyphenyl)amino]prop-1-yn-1-yl}-1-(2,2,2-trifluoroethyl)-1H-indol-4-yl)amino]piperidin-1-yl}propan-2-yl 2-methylpropanoate]"
11,++ (++ = 0.05 μM ≤ SC150 < 0.1 μM),"CCOc1cc(S(C)(=O)=O)ccc1NCC#Cc1cc2c(N[C@H]3CC[C@@H](N(C)C)CC3)cccc2n1CC(F)(F)F [Compound 96A, (1S,4S)-N^4-(2-{3-[(2-ethoxy-4-methane-sulfonylphenyl)amino]prop-1-yn-1-yl}-1-(2,2,2-trifluoroethyl)-1H-indol-4-yl)-N^1,N^1-dimethylcyclohexane-1,4-diamine]"
12,+ (+ = 0 μM ≤ SC150 < 0.05 μM),"COc1cc(S(N)(=O)=O)ccc1NCC#Cc1cc2c(N[C@H]3CCN(C(C)=O)[C@@H](C)C3)cccc2n1CC(F)(F)F [Compound 740A, 4-{[3-(4-{[(2S, 4S)-1-acetyl-2-methylpiperidin-4-yl]amino}-1-(2,2,2-trifluoroethyl)-1H-indol-2-yl)prop-2-yn-1-yl]amino}-3-methoxybenzene-1-sulfonamide]"

# More lines, now with the values behind:
row,Compound,SC150 (concentration of the compound required to increase the DNA binding activity by 50%)
1,"COC(=O)c1ccc(NCC#Cc2cc3c(N[C@@H]4CCN(CC(=O)N(C)C)C[C@@H]4F)cccc3n2CC(F)(F)F)c(OC)c1 [Compound 913A, methyl 4-{[3-(4-{[(3S,4R)-1-[(dimethylcarbamoyl)methyl]-3-fluoropiperidin-4-yl]amino}-1-(2,2,2-trifluoroethyl)-1H-indol-2-yl)prop-2-yn-1-yl]amino}-3-methoxybenzoate]",+ (+ = 0 μM ≤ SC150 < 0.05 μM)
2,"CNC(=O)c1ccc(NCC#Cc2cc3c(N[C@H]4CC[C@](C)(O)CC4)cccc3n2CC(F)(F)F)c(OC)c1 [Compound 31A, 3-methoxy-N-methyl-4-{[3-(4-{[(1R,4R)-4-hydroxy-4-methylcyclohexyl]amino}-1-(2,2,2-trifluoroethyl)-1H-indol-2-yl)prop-2-yn-1-yl]amino}benzamide]",+ (+ = 0 μM ≤ SC150 < 0.05 μM)
3,"COc1cc(C(=O)NCC(=O)O)ccc1NCC#Cc1cc2c(N[C@@H]3CCN(C)C[C@@H]3F)cccc2n1CC(F)(F)F [Compound 896A, (4-((3-(4-(((3S,4R)-3-fluoro-1-methylpiperidin-4-yl)amino)-1-(2,2,2-trifluoroethyl)-1H-indol-2-yl)prop-2-yn-1-yl)amino)-3-methoxybenzoyl)glycine]",+ (+ = 0 μM ≤ SC150 < 0.05 μM)
4,"CCS(=O)(=O)c1ccc(NCC#Cc2cc3c(N[C@H]4CC[C@H](N5CC6(CCOCC6)C5)CC4)cccc3n2CC(F)(F)F)c(OC)c1 [Compound 314A, 2-(3-{[4-(ethanesulfonyl)-2-methoxyphenyl]amino}prop-1-yn-1-yl)-N-[(1R,4R)-4-{7-oxa-2-azaspiro[3.5]nonan-2-yl}cyclohexyl]-1-(2,2,2-trifluoroethyl)-1H-indol-4-amine]",+ (+ = 0 μM ≤ SC150 < 0.05 μM)
5,"CNC(=O)c1ccc(NCC#Cc2cc3c(N[C@H]4CC[C@H](N5CC6(COC6)C5)CC4)cccc3n2CC(F)(F)F)c(OCCOC)c1 [Compound 236A, 3-(2-methoxyethoxy)-N-methyl-4-{[3-(4-{[(1R,4R)-4-{2-oxa-6-azaspiro[3.3]heptan-6-yl}cyclohexyl]amino}-1-(2,2,2-trifluoroethyl)-1H-indol-2-yl)prop-2-yn-1-yl]amino} benzamide]",+ (+ = 0 μM ≤ SC150 < 0.05 μM)
6,"CS(=O)(=O)c1ccc(NCC#Cc2cc3c(N[C@H]4CC[C@H](N5CC6(CCOCC6)C5)CC4)cccc3n2CC(F)(F)F)c(OCF)c1 [Compound 324A, N-((1R,4R)-4-(7-oxa-2-azaspiro[3.5]nonan-2-yl)cyclohexyl)-2-(3-((2-(fluoromethoxy)-4-(methylsulfonyl)phenyl)amino)prop-1-yn-1-yl)-1-(2,2,2-trifluoroethyl)-1H-indol-4-amine]",+ (+ = 0 μM ≤ SC150 < 0.05 μM)
7,CCN(CC)CCNC(=O)c1ccc(NCC#Cc2cc3c(N[C@@H]4CCN(C)C[C@@H]4F)cccc3n2CC(F)(F)F)c(OC)c1 [Compound 946A],+ (+ = 0 μM ≤ SC150 < 0.05 μM)
8,"CS(=O)(=O)c1ccc(NCC#Cc2cc3c(N[C@H]4CC[C@H](N5CC6(COC6)C5)CC4)cccc3n2CC(F)(F)F)c(O)c1 [Compound 214A, 5-methanesulfonyl-2-{[3-(4-{[(1R,4R)-4-{2-oxa-6-azaspiro[3.3]heptan-6-yl}cyclohexyl]amino}-1-(2,2,2-trifluoro-ethyl)-1H-indol-2-yl)prop-2-yn-1-yl]amino}phenol]",+ (+ = 0 μM ≤ SC150 < 0.05 μM)
9,"CN(C)[C@H]1CC[C@H](Nc2cccc3c2cc(C#CCNc2ccc(S(C)(=O)=O)cc2OCC(F)(F)F)n3CC(F)(F)F)CC1 [Compound 92A, (1R,4R)-N^4-[2-(3-{[4-methanesulfonyl-2-(2,2,2-trifluoroethoxy)phenyl]amino}prop-1-yn-1-yl)-1-(2,2,2-trifluoro-ethyl)-1H-indol-4-yl]-N^1,N^1-dimethylcyclo-hexane-1,4-diamine]",+ (+ = 0 μM ≤ SC150 < 0.05 μM)
10,"CNC(=O)c1ccc(NCC#Cc2cc3c(N[C@H]4CC[C@H](N5CCCC5)CC4)cccc3n2CC(F)(F)F)c(OC)c1 [Compound 420A, 3-methoxy-N-methyl-4-{[3-(4-{[(1R,4R)-4-(pyrrolidin-1-yl)cyclohexyl]amino}-1-(2,2,2-trifluoroethyl)-1H-indol-2-yl)prop-2-yn-1-yl]amino}benzamide]",+ (+ = 0 μM ≤ SC150 < 0.05 μM)
